This is an account of results in US11939314B2, “Quinolin-2-one derivatives” (MERCK PATENT GMBH, priority 2016, dated 2024).

One experiment concerns the target T1, c-Kit(V654A) (Homo sapiens, UniProt P10721, V654A).
T1 construct: amino acids 544-end containing the V654A mutation; GST (N)
Description: c-Kit(V654A) assay. Format: biochemical. The note with it: recombinant human c-Kit aa 544-end, 200 μM ATP, 1.4E-06 means 1.4×10^−6, read-out: Inhibition (IC50) of c-KIT (V654A). In short, it runs like this:
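Radiometric filter-binding read-out: substrate 33P incorporation counted by scintillation after P30 filtermat washes in 75 mM phosphoric acid and methanol. Enzyme: N-GST recombinant human c-Kit aa 544-end carrying V654A.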

For a further experiment, the target named is T2, PDGFRalpha(V561D) (Homo sapiens, UniProt P16234, V561D).
T2 construct: recombinant human PDGFRalpha, amino acids 550end containing the V561 D mutation; 6His (N)
Description: PDGFRalpha(V561D) assay. Format: biochemical. The note with it: recombinant human PDGFRalpha aa 550-end, 200 μM ATP, 1.4E-06 means 1.4×10^−6, read-out: Inhibition (IC50) of PDGFRα (V561D). A digest of the protocol:
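Radiometric filter-binding assay: substrate phosphorylation by recombinant N-His-tagged human PDGFRα 550-end V561D was quenched with 3% phosphoric acid after 40 min at room temperature, then counted.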

A word on the IC50: it is the concentration at which inhibition is half-maximal.

T1 sequence (P10721 544-976 V654A): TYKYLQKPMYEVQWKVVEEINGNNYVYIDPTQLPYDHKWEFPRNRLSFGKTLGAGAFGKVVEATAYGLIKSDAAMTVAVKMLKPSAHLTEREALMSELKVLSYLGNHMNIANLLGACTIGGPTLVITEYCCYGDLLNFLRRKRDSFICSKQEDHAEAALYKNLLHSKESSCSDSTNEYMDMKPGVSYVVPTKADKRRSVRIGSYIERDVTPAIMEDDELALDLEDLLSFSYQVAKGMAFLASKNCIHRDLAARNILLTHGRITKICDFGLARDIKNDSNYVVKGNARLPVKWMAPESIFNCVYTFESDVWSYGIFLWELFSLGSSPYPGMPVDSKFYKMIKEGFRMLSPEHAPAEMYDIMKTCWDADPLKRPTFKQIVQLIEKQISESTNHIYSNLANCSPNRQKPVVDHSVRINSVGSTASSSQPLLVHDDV
T2 sequence (P16234 550-1089 V561D): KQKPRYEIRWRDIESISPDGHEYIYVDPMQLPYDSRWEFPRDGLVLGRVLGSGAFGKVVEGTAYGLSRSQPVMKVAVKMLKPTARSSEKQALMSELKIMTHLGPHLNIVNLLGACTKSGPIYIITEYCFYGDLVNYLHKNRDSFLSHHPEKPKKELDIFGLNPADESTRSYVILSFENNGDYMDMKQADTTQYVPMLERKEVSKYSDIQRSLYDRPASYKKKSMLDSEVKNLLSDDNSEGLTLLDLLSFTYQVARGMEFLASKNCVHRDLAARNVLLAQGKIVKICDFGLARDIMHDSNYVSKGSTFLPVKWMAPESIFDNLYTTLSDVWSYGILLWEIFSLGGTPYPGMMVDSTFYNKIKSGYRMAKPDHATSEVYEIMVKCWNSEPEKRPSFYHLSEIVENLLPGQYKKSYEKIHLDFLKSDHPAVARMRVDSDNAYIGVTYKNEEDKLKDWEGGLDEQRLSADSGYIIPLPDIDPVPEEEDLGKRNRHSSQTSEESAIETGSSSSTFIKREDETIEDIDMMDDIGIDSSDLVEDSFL

With `O=C(c1ccc(-n2cc(-c3cc4c(F)c(F)ccc4[nH]c3=O)nn2)cc1)N1CCNCC1` [A127, 5,6-difluoro-3-{1-[4-(piperazine-1-carbonyl)-phenyl]-1H-[1,2,3]triazol-4-yl}-1H-quinolin-2-one], the figures for the IC50 on c-Kit(V654A) and on PDGFRalpha(V561D) were 38 nM and 79 nM, respectively.
In the case of `O=C(Cn1ccc2cc(-n3cc(-c4cc5c(F)cc(F)cc5[nH]c4=O)nn3)ccc21)N1CCNCC1` [A138, 5,7-difluoro-3-{1-[1-(2-oxo-2-piperazin-1-yl-ethyl)-1H-indol-5-yl]-1H-[1,2,3]triazol-4-yl}-1H-quinolin-2-one], the IC50 on c-Kit(V654A) turned out to be 11 nM; on PDGFRalpha(V561D), 86 nM.
As for `O=c1[nH]c2cc(F)c(F)cc2cc1-c1cn(-c2ccc(OCCN3CCNCC3)cc2)nn1` [A130, 6,7-difluoro-3-{1-[4-(2-piperazin-1-yl-ethoxy)-phenyl]-1H-[1,2,3]triazol-4-yl}-1H-quinolin-2-one], the figures for the IC50 on c-Kit(V654A) and on PDGFRalpha(V561D) were 35 nM and 170 nM, respectively.
On the same counts, the results for `NC(=O)[C@@H]1CCN(C(=O)c2ccc(-n3cc(-c4cc5cc(F)ccc5[nH]c4=O)nn3)cc2)C1` [A226, (R)-1-{4-[4-(6-fluoro-2-oxo-1,2-dihydro-quinolin-3-yl)-[1,2,3]triazol-1-yl]-benzoyl}-pyrrolidine-3-carboxylic acid amide] are 55 nM and 89 nM.
On the same counts, the results for `O=C(c1ccc(-n2cc(-c3cc4cc(Cl)ccc4[nH]c3=O)nn2)cc1)N1CC2(COC2)C1` [A258, 6-chloro-3-{1-[4-(2-oxa-6-aza-spiro[3.3]heptane-6-carbonyl)-phenyl]-1H-[1,2,3]triazol-4-yl}-1H-quinolin-2-one] are 47 nM and 86 nM.
On the same counts, the results for `CN(C)C1CCN(C(=O)c2ccc(-n3cc(-c4cc5cc(F)ccc5[nH]c4=O)nn3)cc2)CC1` [A172, 3-{1-[4-(4-dimethylamino-piperidine-1-carbonyl)-phenyl]-1H-[1,2,3]triazol-4-yl}-6-fluoro-1H-quinolin-2-one] are 6.3 nM and 25 nM.
Take `CN1CCN(C(=O)COc2ccc(-n3cc(-c4cc5cc(F)ccc5[nH]c4=O)nn3)cc2)CC1` [A165, 6-fluoro-3-(1-{4-[2-(4-methyl-piperazin-1-yl)-2-oxo-ethoxy]-phenyl}-1H-[1,2,3]triazol-4-yl)-1H-quinolin-2-one]: the IC50 is 30 nM on c-Kit(V654A) and 33 nM at PDGFRalpha(V561D).
As for `CN1CCN(C(=O)c2ccc(-n3cc(-c4cc5cc(Cl)ccc5[nH]c4=O)nn3)cc2)CC1` [A151, 6-chloro-3-{1-[4-(4-methyl-piperazine-1-carbonyl)-phenyl]-1H-[1,2,3]triazol-4-yl}-1H-quinolin-2-one], the IC50 on c-Kit(V654A) was 3 nM; on PDGFRalpha(V561D), 1 nM.
On the same counts, the results for `O=C(COc1ccc(-n2cc(-c3cc4cc(F)ccc4[nH]c3=O)nn2)cc1)N1CCNCC1` [A141, 6-fluoro-3-{1-[4-(2-oxo-2-piperazin-1-yl-ethoxy)-phenyl]-1H-[1,2,3]triazol-4-yl}-1H-quinolin-2-one] are 3.8 nM and 2.8 nM.
Take `COCCOC[C@H]1CCN(C(=O)c2ccc(-n3cc(-c4cc5cc(F)c(F)cc5[nH]c4=O)nn3)cc2)C1` [A233, 6,7-difluoro-3-(1-{4-[(S)-3-(2-methoxy-ethoxymethyl)-pyrrolidine-1-carbonyl]-phenyl}-1H-[1,2,3]triazol-4-yl)-1H-quinolin-2-one]: the values for the IC50 on c-Kit(V654A) and on PDGFRalpha(V561D) were 96 nM and 600 nM, respectively.
In the case of `O=C(c1ccc(-n2cc(-c3cc4cc(F)ccc4[nH]c3=O)nn2)cc1)N1CCC2(CCOC2)C1` (stereo not shown) [A204, 6-fluoro-3-{1-[4-(2-oxa-7-aza-spiro[4.4]nonane-7-carbonyl)-phenyl]-1H-[1,2,3]triazol-4-yl}-1H-quinolin-2-one], the results for the IC50 on c-Kit(V654A) and at PDGFRalpha(V561D) were 55 nM and 110 nM, respectively.
On the same counts, the results for `O=C(c1ccc(-n2cc(-c3cc4cc(F)ccc4[nH]c3=O)nn2)cc1)N1CCC1` [A280, 3-{1-[4-(azetidine-1-carbonyl)-phenyl]-1H-[1,2,3]triazol-4-yl}-6-fluoro-1H-quinolin-2-one] are 77 nM and 53 nM.
For `O=c1[nH]c2ccccc2cc1-c1cn(-c2ccc(N3CCNCC3)cc2)nn1` [A52, 3-[1-(4-piperazin-1-yl-phenyl)-1H-[1,2,3]triazol-4-yl]-1H-quinolin-2-one] the same measures were 22 nM and 27 nM.
On the same counts, the results for `O=C(NCCO)c1ccc(-n2cc(-c3cc4ccccc4[nH]c3=O)nn2)cc1` [A19, N-(2-hydroxy-ethyl)-4-[4-(2-oxo-1,2-dihydro-quinolin-3-yl)-[1,2,3]triazol-1-yl]-benzamide] are 38 nM and 14 nM.
On to `O=C(c1ccc(-n2cc(-c3cc4ncccc4[nH]c3=O)nn2)cc1)N1CCOCC1` [A85, 3-{1-[4-(morpholine-4-carbonyl)-phenyl]-1H-[1,2,3]triazol-4-yl}-1H-[1,5]naphthyridin-2-one], for which the 50% inhibitory concentration (IC50) on c-Kit(V654A) came out at 1300 nM; at PDGFRalpha(V561D) it was 1700 nM.
For `COCC1CCN(C(=O)c2ccc(-n3cc(-c4cc5cc(F)ccc5[nH]c4=O)nn3)cc2)C1` (stereo not shown) [A106, 6-fluoro-3-{1-[4-(3-methoxymethyl-pyrrolidine-1-carbonyl)-phenyl]-1H-[1,2,3]triazol-4-yl}-1H-quinolin-2-one] the same measures were 9.1 nM and 0.9 nM.
As for `Cc1ccc2[nH]c(=O)c(-c3cn(-c4ccc(C(=O)N5CCN(C)CC5)cc4)nn3)cc2c1` [A168, 6-methyl-3-{1-[4-(4-methyl-piperazine-1-carbonyl)-phenyl]-1H-[1,2,3]triazol-4-yl}-1H-quinolin-2-one], the IC50 on c-Kit(V654A) came to 37 nM; at PDGFRalpha(V561D) it was 100 nM.
On the same counts, the results for `O=c1[nH]c2ccncc2cc1-c1cn(-c2ccc(F)cc2)nn1` [A45, 3-[1-(4-fluoro-phenyl)-1H-[1,2,3]triazol-4-yl]-1H-[1,6]naphthyridin-2-one] are 1100 nM and 330 nM.
On the same counts, the results for `O=C1COCCN1c1ccc(-n2cc(-c3cc4ccccc4[nH]c3=O)nn2)cc1` [A25, 3-{1-[4-(3-oxo-morpholin-4-yl)-phenyl]-1H-[1,2,3]triazol-4-yl}-1H-quinolin-2-one] are 15 nM and 3 nM.
For `CN(C)C(=O)c1ccc(-n2cc(-c3cc4cc(F)ccc4[nH]c3=O)nn2)cc1` [A18, 4-[4-(6-fluoro-2-oxo-1,2-dihydro-quinolin-3-yl)-[1,2,3]triazol-1-yl]-N,N-dimethyl-benzamide] the same measures were 15 nM and 5 nM.
Regarding `CN1CCN(c2ncc(-n3cc(-c4cc5ccccc5[nH]c4=O)nn3)cn2)CC1` [A66, 3-{1-[2-(4-methyl-piperazin-1-yl)-pyrimidin-5-yl]-1H-[1,2,3]triazol-4-yl}-1H-quinolin-2-one], the IC50 on c-Kit(V654A) is 640 nM; at PDGFRalpha(V561D), 190 nM.
On the same counts, the results for `CN1CCN(CCCOc2ccc(-n3cc(-c4cc5cc(F)c(F)cc5[nH]c4=O)nn3)cc2)CC1` [A162, 6,7-difluoro-3-(1-{4-[3-(4-methyl-piperazin-1-yl)-propoxy]-phenyl}-1H-[1,2,3]triazol-4-yl)-1H-quinolin-2-one] are 82 nM and 97 nM.
On to `O=C1COCCN1c1ccc(-n2cc(-c3cc4ccccc4[nH]c3=O)nn2)cn1` [A34, 3-{1-[6-(3-oxo-morpholin-4-yl)-pyridin-3-yl]-1H-[1,2,3]triazol-4-yl}-1H-quinolin-2-one], for which the IC50 on c-Kit(V654A) was 5800 nM; on PDGFRalpha(V561D), 110 nM.
Regarding `COCCO[C@H]1CCN(C(=O)c2ccc(-n3cc(-c4cc5cc(F)ccc5[nH]c4=O)cn3)cc2)C1` [A299, 6-fluoro-3-(1-{4-[(S)-3-(2-methoxy-ethoxy)-pyrrolidine-1-carbonyl]-phenyl}-1H-pyrazol-4-yl)-1H-quinolin-2-one], the IC50 was 58 nM at c-Kit(V654A) and 23 nM at PDGFRalpha(V561D).
For the compound `O=C(c1ccc(-n2cc(-c3cc4cc(Cl)ccc4[nH]c3=O)nn2)cc1)N1C[C@H](O)CO1` [A277, 6-chloro-3-{1-[4-((S)-4-hydroxy-isoxazolidine-2-carbonyl)-phenyl]-1H-[1,2,3]triazol-4-yl}-1H-quinolin-2-one], the IC50 was found to be 30 nM on c-Kit(V654A) and 2.6 nM at PDGFRalpha(V561D).
Take `CN1CCN(C(=O)c2ccc(-n3cc(-c4cc5ccc(F)cc5[nH]c4=O)nn3)cc2)CC1` [A118, 7-fluoro-3-{1-[4-(4-methyl-piperazine-1-carbonyl)-phenyl]-1H-[1,2,3]triazol-4-yl}-1H-quinolin-2-one]: the IC50 turned out to be 16 nM at c-Kit(V654A) and 5 nM at PDGFRalpha(V561D).
Take `CN(C)C[C@@H]1CCCN1C(=O)c1ccc(-n2cc(-c3cc4cc(Cl)ccc4[nH]c3=O)nn2)cc1` [A318, 6-chloro-3-{1-[4-((S)-2-dimethylaminomethyl-pyrrolidine-1-carbonyl)-phenyl]-1H-[1,2,3]triazol-4-yl}-1H-quinolin-2-one]: the IC50 on c-Kit(V654A) is 20 nM; at PDGFRalpha(V561D), 17 nM.
On the same counts, the results for `CO[C@@H]1CN(C(=O)c2ccc(-n3cc(-c4cc5cc(Cl)ccc5[nH]c4=O)nn3)cc2)C[C@H]1OC` [A271, 6-chloro-3-{1-[4-((3R,4R)-3,4-dimethoxy-pyrrolidine-1-carbonyl)-phenyl]-1H-[1,2,3]triazol-4-yl}-1H-quinolin-2-one] are 50 nM and 0.51 nM.
For `CO[C@H]1CCCN(C(=O)c2ccc(-n3cc(-c4cc5cc(F)c(F)cc5[nH]c4=O)nn3)cc2)C1` [A193, 6,7-difluoro-3-{1-[4-((S)-3-methoxy-piperidine-1-carbonyl)-phenyl]-1H-[1,2,3]triazol-4-yl}-1H-quinolin-2-one] the same measures were 230 nM and 200 nM.
